Assay results taken from PubChem BioAssay (NCI).
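Method: 48-hour compound exposure of cells in 96-well plates, five concentrations, linear interpolation of endpoints. GI50 is the concentration that inhibits growth by half. TGI is the concentration that stops growth completely.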

Columns and labels:
Test in all cases: growth of human tumour cells (NCI), 48 h
786-0 renal = system: 786-0 renal
A498 renal = system: A498 renal
A549 NSCLC = system: A549 NSCLC
ACHN renal = system: ACHN renal
BT-549 breast = system: BT-549 breast
CAKI-1 renal = system: CAKI-1 renal
CCRF-CEM leukemia = system: CCRF-CEM leukemia
COLO 205 colon = system: COLO 205 colon
DU-145 prostate = system: DU-145 prostate
EKVX NSCLC = system: EKVX NSCLC
HCC-2998 colon = system: HCC-2998 colon
HCT-116 colon = system: HCT-116 colon
HCT-15 colon = system: HCT-15 colon
HL-60(TB) leukemia = system: HL-60(TB) leukemia
HOP-62 NSCLC = system: HOP-62 NSCLC
HOP-92 NSCLC = system: HOP-92 NSCLC
HS 578T breast = system: HS 578T breast
HT29 colon = system: HT29 colon
IGROV1 ovarian = system: IGROV1 ovarian
K-562 leukemia = system: K-562 leukemia
KM12 colon = system: KM12 colon
LOX IMVI melanoma = system: LOX IMVI melanoma
M14 melanoma = system: M14 melanoma
MALME-3M melanoma = system: MALME-3M melanoma
MCF7 breast = system: MCF7 breast
MDA-MB-231 breast = system: MDA-MB-231 breast
MDA-MB-435 = system: MDA-MB-435
MOLT-4 leukemia = system: MOLT-4 leukemia
NCI-H226 lung = system: NCI-H226 lung
NCI-H23 lung = system: NCI-H23 lung
NCI-H460 lung = system: NCI-H460 lung
NCI-H522 lung = system: NCI-H522 lung
NCI/ADR-RES ovarian = system: NCI/ADR-RES ovarian
OVCAR-3 ovarian = system: OVCAR-3 ovarian
OVCAR-4 ovarian = system: OVCAR-4 ovarian
OVCAR-5 ovarian = system: OVCAR-5 ovarian
OVCAR-8 ovarian = system: OVCAR-8 ovarian
PC-3 prostate = system: PC-3 prostate
RPMI-8226 leukemia = system: RPMI-8226 leukemia
RXF 393 renal = system: RXF 393 renal
SF-268 CNS = system: SF-268 CNS
SF-295 CNS = system: SF-295 CNS
SF-539 CNS = system: SF-539 CNS
SK-MEL-2 melanoma = system: SK-MEL-2 melanoma
SK-MEL-28 melanoma = system: SK-MEL-28 melanoma
SK-MEL-5 melanoma = system: SK-MEL-5 melanoma
SK-OV-3 ovarian = system: SK-OV-3 ovarian
SN12C renal = system: SN12C renal
SNB-19 CNS = system: SNB-19 CNS
SNB-75 CNS = system: SNB-75 CNS
SW-620 colon = system: SW-620 colon
T-47D breast = system: T-47D breast
TK-10 renal = system: TK-10 renal
U251 CNS = system: U251 CNS
UACC-257 melanoma = system: UACC-257 melanoma
UACC-62 melanoma = system: UACC-62 melanoma
UO-31 renal = system: UO-31 renal

For `C[n+]1c(-c2ccccc2)c2cc(N)ccc2c2ccccc21`, which GI50 (786-0 renal) is on record?
Its GI50 is 7.87 µM.

And the TGI (786-0 renal)?
The TGI was greater than 100 µM.

What about the GI50 (A498 renal) of the same compound?
Its GI50 is 19.6 µM.

What about the TGI (A498 renal) of the same compound?
The TGI was greater than 79.5 µM.

And the GI50 (A549 NSCLC)?
Its GI50 is 5.1 µM.

And the TGI (A549 NSCLC)?
Its TGI is greater than 47.7 µM.

What about the GI50 (ACHN renal) of the same compound?
Its GI50 is greater than 63.7 µM.

And the TGI (ACHN renal)?
Its TGI is greater than 100 µM.

What about the GI50 (BT-549 breast) of the same compound?
The GI50 was 2.44 µM.

What about the TGI (BT-549 breast) of the same compound?
Its TGI is 16.7 µM.

What about the GI50 (CAKI-1 renal) of the same compound?
The GI50 was greater than 59.8 µM.

What about the TGI (CAKI-1 renal) of the same compound?
The TGI was greater than 100 µM.

What about the GI50 (CCRF-CEM leukemia) of the same compound?
Its GI50 is 3.4 µM.

And the TGI (CCRF-CEM leukemia)?
The TGI was 29.5 µM.

And the GI50 (COLO 205 colon)?
The GI50 was 1.97 µM.

And the TGI (COLO 205 colon)?
Its TGI is 6 µM.

And the GI50 (DU-145 prostate)?
Its GI50 is 4.12 µM.

What about the TGI (DU-145 prostate) of the same compound?
The TGI was 57.3 µM.

And the GI50 (EKVX NSCLC)?
The GI50 was 7.97 µM.

And the TGI (EKVX NSCLC)?
The TGI was greater than 100 µM.

What about the GI50 (HCC-2998 colon) of the same compound?
The GI50 was 2 µM.

What about the TGI (HCC-2998 colon) of the same compound?
Its TGI is 7.97 µM.

And the GI50 (HCT-116 colon)?
The GI50 was 2.75 µM.

What about the TGI (HCT-116 colon) of the same compound?
The TGI was 44.6 µM.

And the GI50 (HCT-15 colon)?
The GI50 was greater than 100 µM.

What about the TGI (HCT-15 colon) of the same compound?
The TGI was greater than 100 µM.

And the GI50 (HL-60(TB) leukemia)?
The GI50 was 6.01 µM.

What about the TGI (HL-60(TB) leukemia) of the same compound?
The TGI was 25.1 µM.

And the GI50 (HOP-62 NSCLC)?
Its GI50 is 7.13 µM.

What about the TGI (HOP-62 NSCLC) of the same compound?
The TGI was 38.2 µM.

And the GI50 (HOP-92 NSCLC)?
The GI50 was 2.57 µM.

And the TGI (HOP-92 NSCLC)?
The TGI was 20 µM.

What about the GI50 (HS 578T breast) of the same compound?
Its GI50 is 2.76 µM.

What about the TGI (HS 578T breast) of the same compound?
Its TGI is 12.3 µM.

And the GI50 (HT29 colon)?
Its GI50 is 3.45 µM.

And the TGI (HT29 colon)?
The TGI was 22.3 µM.

What about the GI50 (IGROV1 ovarian) of the same compound?
The GI50 was 5.78 µM.

And the TGI (IGROV1 ovarian)?
Its TGI is greater than 44.2 µM.

What about the GI50 (K-562 leukemia) of the same compound?
Its GI50 is 2.51 µM.

What about the TGI (K-562 leukemia) of the same compound?
Its TGI is 28.4 µM.

What about the GI50 (KM12 colon) of the same compound?
Its GI50 is 2.87 µM.

What about the TGI (KM12 colon) of the same compound?
The TGI was 14.8 µM.

What about the GI50 (LOX IMVI melanoma) of the same compound?
The GI50 was 4.16 µM.

And the TGI (LOX IMVI melanoma)?
Its TGI is greater than 70.7 µM.

And the GI50 (M14 melanoma)?
The GI50 was 8.94 µM.

What about the TGI (M14 melanoma) of the same compound?
The TGI was 32.7 µM.

What about the GI50 (MALME-3M melanoma) of the same compound?
Its GI50 is 1.98 µM.

What about the TGI (MALME-3M melanoma) of the same compound?
The TGI was 6.63 µM.

What about the GI50 (MCF7 breast) of the same compound?
The GI50 was 2.43 µM.

What about the TGI (MCF7 breast) of the same compound?
The TGI was 17.9 µM.

What about the GI50 (MDA-MB-231 breast) of the same compound?
Its GI50 is 13.3 µM.

And the TGI (MDA-MB-231 breast)?
Its TGI is 60 µM.

And the GI50 (MDA-MB-435)?
The GI50 was 3.22 µM.

And the TGI (MDA-MB-435)?
Its TGI is 14.2 µM.

What about the GI50 (MOLT-4 leukemia) of the same compound?
Its GI50 is 1.99 µM.

What about the TGI (MOLT-4 leukemia) of the same compound?
Its TGI is 20.5 µM.

And the GI50 (NCI-H226 lung)?
The GI50 was 8.7 µM.

And the TGI (NCI-H226 lung)?
The TGI was greater than 58.5 µM.

What about the GI50 (NCI-H23 lung) of the same compound?
Its GI50 is 2.28 µM.

And the TGI (NCI-H23 lung)?
Its TGI is 12.2 µM.

What about the GI50 (NCI-H460 lung) of the same compound?
The GI50 was 3.2 µM.

And the TGI (NCI-H460 lung)?
Its TGI is 26.4 µM.

And the GI50 (NCI-H522 lung)?
The GI50 was 3.91 µM.

What about the TGI (NCI-H522 lung) of the same compound?
Its TGI is greater than 100 µM.

What about the GI50 (NCI/ADR-RES ovarian) of the same compound?
Its GI50 is greater than 100 µM.

And the TGI (NCI/ADR-RES ovarian)?
Its TGI is greater than 100 µM.

What about the GI50 (OVCAR-3 ovarian) of the same compound?
The GI50 was 3.48 µM.

What about the TGI (OVCAR-3 ovarian) of the same compound?
Its TGI is 22.2 µM.

What about the GI50 (OVCAR-4 ovarian) of the same compound?
Its GI50 is 2.84 µM.

And the TGI (OVCAR-4 ovarian)?
The TGI was 16 µM.

What about the GI50 (OVCAR-5 ovarian) of the same compound?
The GI50 was 25.4 µM.

And the TGI (OVCAR-5 ovarian)?
The TGI was greater than 100 µM.

And the GI50 (OVCAR-8 ovarian)?
Its GI50 is 12.4 µM.

And the TGI (OVCAR-8 ovarian)?
Its TGI is greater than 100 µM.

And the GI50 (PC-3 prostate)?
The GI50 was 4.45 µM.

And the TGI (PC-3 prostate)?
Its TGI is 31.8 µM.

And the GI50 (RPMI-8226 leukemia)?
The GI50 was 1.64 µM.

And the TGI (RPMI-8226 leukemia)?
The TGI was 9.75 µM.

What about the GI50 (RXF 393 renal) of the same compound?
The GI50 was 26.3 µM.

And the TGI (RXF 393 renal)?
The TGI was greater than 100 µM.

And the GI50 (SF-268 CNS)?
The GI50 was 0.534 µM.

What about the TGI (SF-268 CNS) of the same compound?
The TGI was 7.07 µM.

And the GI50 (SF-295 CNS)?
Its GI50 is 5.68 µM.

And the TGI (SF-295 CNS)?
The TGI was greater than 78.1 µM.

What about the GI50 (SF-539 CNS) of the same compound?
The GI50 was 3.49 µM.

And the TGI (SF-539 CNS)?
The TGI was 15.5 µM.

What about the GI50 (SK-MEL-2 melanoma) of the same compound?
The GI50 was 6.08 µM.

What about the TGI (SK-MEL-2 melanoma) of the same compound?
Its TGI is 32.9 µM.

And the GI50 (SK-MEL-28 melanoma)?
The GI50 was 2.19 µM.

What about the TGI (SK-MEL-28 melanoma) of the same compound?
The TGI was 4.95 µM.

And the GI50 (SK-MEL-5 melanoma)?
Its GI50 is 2.11 µM.

What about the TGI (SK-MEL-5 melanoma) of the same compound?
Its TGI is 6.5 µM.

And the GI50 (SK-OV-3 ovarian)?
The GI50 was 11.7 µM.

What about the TGI (SK-OV-3 ovarian) of the same compound?
Its TGI is greater than 91.9 µM.

And the GI50 (SN12C renal)?
Its GI50 is 2.13 µM.

And the TGI (SN12C renal)?
The TGI was 20.2 µM.

And the GI50 (SNB-19 CNS)?
Its GI50 is 2.09 µM.

And the TGI (SNB-19 CNS)?
The TGI was 20.6 µM.

And the GI50 (SNB-75 CNS)?
The GI50 was 1.28 µM.

What about the TGI (SNB-75 CNS) of the same compound?
Its TGI is 3.07 µM.

What about the GI50 (SW-620 colon) of the same compound?
The GI50 was 3.38 µM.

And the TGI (SW-620 colon)?
Its TGI is 50.5 µM.

And the GI50 (T-47D breast)?
Its GI50 is 2.42 µM.

And the TGI (T-47D breast)?
The TGI was 14.9 µM.

And the GI50 (TK-10 renal)?
Its GI50 is 8.69 µM.

And the TGI (TK-10 renal)?
Its TGI is greater than 59.5 µM.

What about the GI50 (U251 CNS) of the same compound?
The GI50 was 1.39 µM.

What about the TGI (U251 CNS) of the same compound?
Its TGI is greater than 44.3 µM.

And the GI50 (UACC-257 melanoma)?
The GI50 was 4.73 µM.

And the TGI (UACC-257 melanoma)?
The TGI was greater than 100 µM.

What about the GI50 (UACC-62 melanoma) of the same compound?
The GI50 was 2 µM.

What about the TGI (UACC-62 melanoma) of the same compound?
Its TGI is 5.03 µM.

What about the GI50 (UO-31 renal) of the same compound?
The GI50 was greater than 83.8 µM.

And the TGI (UO-31 renal)?
The TGI was greater than 100 µM.
